We go through 24 compounds from patent US8338611B2, “Opioid receptor antagonists” (Eli Lilly and Company, priority 2004, dated 2012).

Assay type in all cases: biochemical
Test [1] concerns the target T1, cloned human mu opioid receptor (Homo sapiens, UniProt P35372).
T1 construct: expressed in transfected cells
Put plainly: GTP-γ-S Binding Assay, mu opioid receptor (Table 1: Receptor Binding). Particulars: membranes from cells expressing cloned human mu receptor.

Test [2] deals with T2, cloned human kappa opioid receptor (Homo sapiens, UniProt P41145).
T2 construct: expressed in transfected cells
T2 sequence (P41145 whole entry): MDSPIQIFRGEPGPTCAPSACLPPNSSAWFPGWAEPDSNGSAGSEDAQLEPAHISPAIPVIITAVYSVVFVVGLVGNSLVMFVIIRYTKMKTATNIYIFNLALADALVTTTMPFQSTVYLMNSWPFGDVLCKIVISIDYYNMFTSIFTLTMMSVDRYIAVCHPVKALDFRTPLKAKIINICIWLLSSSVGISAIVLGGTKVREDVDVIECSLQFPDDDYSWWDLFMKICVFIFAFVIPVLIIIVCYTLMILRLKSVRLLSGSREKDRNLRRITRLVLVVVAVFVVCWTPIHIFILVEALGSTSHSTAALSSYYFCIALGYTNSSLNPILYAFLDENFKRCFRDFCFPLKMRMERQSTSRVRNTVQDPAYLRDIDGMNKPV
Put plainly: GTP-γ-S Binding Assay, kappa opioid receptor (Table 1: Receptor Binding). Conditions: membranes from cells expressing cloned human kappa receptor.

The target of test [3] is T3, cloned human delta opioid receptor (Homo sapiens, UniProt P41143).
T3 construct: expressed in transfected cells
T3 sequence (P41143 whole entry): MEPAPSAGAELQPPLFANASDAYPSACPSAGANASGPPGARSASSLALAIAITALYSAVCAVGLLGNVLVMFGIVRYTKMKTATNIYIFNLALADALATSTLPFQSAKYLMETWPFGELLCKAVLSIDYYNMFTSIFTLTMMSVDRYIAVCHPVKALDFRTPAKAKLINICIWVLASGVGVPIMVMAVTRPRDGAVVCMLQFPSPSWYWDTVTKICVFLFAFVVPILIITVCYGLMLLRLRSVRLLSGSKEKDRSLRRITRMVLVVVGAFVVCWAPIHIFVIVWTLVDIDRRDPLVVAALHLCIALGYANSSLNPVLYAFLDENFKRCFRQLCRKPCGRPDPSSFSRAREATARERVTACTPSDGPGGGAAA
Put plainly: GTP-γ-S Binding Assay, delta opioid receptor (Table 1: Receptor Binding). Conditions: membranes from cells expressing cloned human delta receptor. The procedure:
The functional antagonist potency (Kb) of the sample compounds was determined using the GTPγS binding assay. GTPgS-based functional assays provide an in vitro measure of the activity of opioid agonists and antagonists. Opioid reference compounds or test compound are incubated with membrane homogenate from cells expressing the cloned human mu, kappa or delta opioid receptor and radiolabeled [35S]GTPgS. If the compound activates the opioid receptor, an increase in the binding of radiolabeled GTPgS is observed. […] These tests provide an in vitro measurement of the activity of the compound at human opioid receptors. GTP-γ-S Binding Assay
An SPA-based GTP-γ-S assay format was developed based on previous opioid (Emmerson et al., J. Pharm Exp Ther 278, 1121, 1996; Horng et al., Society for Neuroscience Abstracts, 434.6, 2000) and muscarinic (DeLapp et al., JPET 289, 946, 1999) assay formats. Membranes were resuspended in 20 mM HEPES, 100 mM NaCl, 5 mM MgCl2, 1 mM DTT, and 1 mM EDTA. Fifty (50) […], of GTP-γ-[35S], compound; membrane suspension (20 microgram/well), and wheat germ agglutinin coated SPA beads (1 mg/well) were added to clear bottom 96 well assay plates. GDP ([…]) was added to the membrane solution prior to addition to the assay plates. Plates were sealed and incubated for four hours at room temperature then placed in a refrigerator overnight to allow the beads to settle. Signal stability at 4° C. was determined to be >6O hours. Plates were warmed to room temperature and counted in a Wallac Microbeta scintillation counter. For antagonist assays, specific agonists were added at the following concentrations: (MOR) DAMGO 1 micromolar, (DOR) DPDPE 30 nM, (KOR) U69593 300 nM. Kb's were determined by Cheng-Prusoff equation (see Cheng and Prusoff, Biochem. Pharmacol. 22, 3099, 1973).

The mark [4] stands for this setting: read-out: Receptor Binding (Ki, nM) Mu.

Values joined by “and” are separate entries in the source; they are usually repeats but may differ in a detail not shown here. Equal entries are not always repeated. Where two headings read alike, the source gives them in different places. A value given as a limit tells only on which side of the number the result lay.

T1 sequence (P35372 whole entry): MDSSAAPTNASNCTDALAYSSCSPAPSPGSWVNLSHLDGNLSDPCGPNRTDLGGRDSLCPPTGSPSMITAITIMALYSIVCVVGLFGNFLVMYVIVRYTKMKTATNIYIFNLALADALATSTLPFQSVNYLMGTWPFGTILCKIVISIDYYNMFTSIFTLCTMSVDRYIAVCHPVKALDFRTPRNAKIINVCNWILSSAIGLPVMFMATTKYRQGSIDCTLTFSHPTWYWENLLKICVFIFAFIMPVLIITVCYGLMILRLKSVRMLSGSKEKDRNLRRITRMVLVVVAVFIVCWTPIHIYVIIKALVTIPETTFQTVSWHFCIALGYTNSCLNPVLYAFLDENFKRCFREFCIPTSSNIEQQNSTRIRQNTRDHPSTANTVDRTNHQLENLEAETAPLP

Take `NCCc1ccc(Nc2ccc(C(N)=O)cn2)cc1` [Example 16, 6-[4-(2-Amino-ethyl)-phenylamino]-nicotinamide]: the Ki in test [1] (Receptor Binding (Ki, nM) Mu) turned out to be 45.4 nM; in test [2], 1020 nM; in test [3] it was 270 nM.

As to `NC(=O)c1ccc([S+]([O-])c2ccc(CNCCc3ccccc3)cc2)cc1` (stereo not shown) [Example 15, 4-[4-(Phenethylamino-methyl)-benzenesulfinyl]-benzamide], the Ki in test [1] (setting [4]) was 292 nM; in test [2], 654 nM; in test [3] it was 1820 nM.

On to `CC(=O)Nc1ccc(Oc2ccc(CCNC(=O)OC(C)(C)C)cc2)cc1` [Example 24, {2-[4-(4-Acetylamino-phenoxy)-phenyl]-ethyl}-carbamic acid tert-butyl ester], for which the figures for the Ki in test [1] (setting [4]), in test [2] and in test [3] were 198 nM, 2670 nM and 4020 nM, respectively.

As to `NC(=O)c1ccc(Nc2ccc(CNCC3CCCCC3)cc2)nc1` [Example 21, 6-{4-[(Cyclohexylmethyl-amino)-methyl]-phenylamino}-nicotinamide], the Ki in test [1] (setting [4]) is greater than 3000 nM; in test [2], greater than 4000 nM; in test [3], greater than 5000 nM.

As for `CC(=O)Nc1ccc(Oc2ccc(CCNCc3ccccc3C)cc2)cc1` [Example 40, N-(4-{4-[2-(2-Methyl-benzylamino)-ethyl]-phenoxy}-phenyl)-acetamide], the Ki is 912 nM in test [1] (setting [4]), greater than 4000 nM in test [2] and greater than 5000 nM in test [3].

With `CC(=O)Nc1ccc(Oc2ccc(CCNC3CCCCC3)cc2)cc1` [Example 39, N-{4-[4-(2-Cyclohexylamino-ethyl)-phenoxy]-phenyl}-acetamide], the Ki is greater than 2500 nM in test [1] (setting [4]), greater than 4000 nM in test [2] and greater than 5000 nM in test [3].

On to `NC(=O)c1ccc(Nc2ccc(CNCc3ccccc3)cc2)nc1` [Example 20, 6-[4-(Benzylamino-methyl)-phenylamino]-nicotinamide], for which the Ki stood at 73.2 nM in test [1] (setting [4]), 402 nM in test [2] and 537 nM in test [3].

`CC(=O)Nc1ccc(Oc2ccc(CCNCCCc3ccccc3)cc2)cc1` [Example 29, N-(4-{4-[2-(3-Phenyl-propylamino)-ethyl]-phenoxy}-phenyl)-acetamide]: the Ki turned out to be 5.06 nM in test [1] (setting [4]), 731 nM in test [2] and 62.5 nM in test [3].

With `CC(=O)Oc1ccc(Oc2ccc(CCNCc3ccccc3)cc2)cc1` [Example 6, Acetic acid 4-[4-(2-benzylamino-ethyl)-phenoxy]phenyl ester], the Ki in test [1] (setting [4]) worked out at 229 nM; in test [2], 1620 nM; in test [3], 3250 nM.

As for `NC(=O)c1ccc(Sc2ccc(CNCC3CC3)cc2)nc1` [Example 10, 6-{4-[(Cyclopropylmethyl-amino)-methyl]-phenylsulfanyl}-nicotinamide], the Ki is 726 nM in test [1] (setting [4]), greater than 5000 nM in test [2] and 3040 nM in test [3].

Consider `CCCCCCNCCc1ccc(Oc2ccc(NC(C)=O)cc2)cc1` [Example 27, N-{4-[4-(2-Hexylamino-ethyl)-phenoxy]-phenyl}-acetamide], for which the Ki in test [1] (setting [4]) is 200 nM and 64.3 nM.

In the case of `CC(=O)Nc1ccc(Oc2ccc(CCNCCC3CCCCC3)cc2)cc1` [Example 30, N-(4-{4-[2-(2-Cyclohexyl-ethylamino)-ethyl]-phenoxy}-phenyl)-acetamide], the Ki came to 18 nM in test [1] (setting [4]), 163 nM in test [2] and 260 nM in test [3].

With `NC(=O)c1ccc(Nc2ccc(CCNCC3CCCCC3)cc2)nc1` [Example 18, 6-{4-[2-(Cyclohexylmethyl-amino)-ethyl]-phenylamino}-nicotinamide], the Ki in test [1] (setting [4]) was found to be 48.7 nM; in test [2], 466 nM; in test [3] it was 278 nM.

In the case of `CC(=O)c1ccc(Oc2ccc(CCNCc3ccccc3)cc2)cc1` [Example 5, 1-{4-[4-(2-Benzylamino-ethyl)-phenoxy]-phenyl}-ethanone], the Ki in test [1] (setting [4]) was 1310 nM; in test [2] it was greater than 5000 nM; in test [3] it was greater than 5000 nM.

Consider `NC(=O)c1ccc(Nc2ccc(CNCCc3ccccc3)cc2)nc1` [Example 22, 6-[4-(Phenethylamino-methyl)-phenylamino]-nicotinamide], for which the Ki in test [1] (setting [4]) is greater than 3000 nM; in test [2] it was greater than 4000 nM; in test [3], greater than 5000 nM.

Consider `CC(=O)Nc1ccc(Oc2ccc(CCN)cc2)cc1` [Example 25, N-{4-[4-(2-Amino-ethyl)-phenoxy]-phenyl}-acetamide], for which the Ki in test [1] (Receptor Binding (Ki, nM) Mu) was 67.5 nM; in test [2], 3970 nM; in test [3], 2510 nM.

For the compound `CC(=O)Nc1ccc(Oc2ccc(CCNCc3cccc(Cl)c3)cc2)cc1` [Example 37, N-(4-{4-[2-(3-Chloro-benzylamino)-ethyl]-phenoxy}-phenyl)-acetamide], the Ki in test [1] (setting [4]) was 1750 nM; in test [2], greater than 4000 nM; in test [3] it was greater than 5000 nM.

As to `NC(=O)c1ccc(Nc2ccc(CCNCc3ccccc3)cc2)nc1` [Example 17, 6-[4-(2-Benzylamino-ethyl)-phenylamino]-nicotinamide], the Ki in test [1] (setting [4]) was 1350 nM; in test [2], 761 nM; in test [3], greater than 5000 nM.

Regarding “6-{4-[(2-Pyridin-4-yl-ethylamino)-methyl]-phenylsulfanyl}-nicotinamide [Example 19]”, the values for the Ki in test [1] (setting [4]), in test [2] and in test [3] were 107 nM, 137 nM and 858 nM, respectively.

Regarding `NC(=O)c1ccc(S(=O)(=O)c2ccc(CNCCc3ccccc3)cc2)cc1` [Example 14, 4-[4-(Phenethylamino-methyl)-benzenesulfonyl]-benzamide], the Ki was 86.4 nM in test [1] (setting [4]), 1020 nM in test [2] and 714 nM in test [3].

`CC(C)CCNCc1ccc(Sc2ccc(C(N)=O)cn2)cc1` [Example 13, 6-{4-[(3-Methyl-butylamino)-methyl]-phenylsulfanyl}-nicotinamide]: the results for the Ki in test [1] (setting [4]), in test [2] and in test [3] were 563 nM, 2440 nM and 3520 nM, respectively.

Turning to `CC(=O)Nc1ccc(Oc2ccc(CCNCc3cccs3)cc2)cc1` [Example 28, N-[4-(4-{2-[(Thiophen-2-ylmethyl)-amino]-ethyl}-phenoxy)-phenyl]-acetamide], the Ki in test [1] (setting [4]) was found to be 26.9 nM; in test [2], 150 nM; in test [3], 469 nM.

In the case of `CC(=O)Nc1ccc(Oc2ccc(CCNCC(C)C)cc2)cc1` [Example 38, N-{4-[4-(2-Isobutylamino-ethyl)-phenoxy]-phenyl}-acetamide], the Ki is 1720 nM in test [1] (setting [4]), greater than 4000 nM in test [2] and greater than 5000 nM in test [3].

With `CC(=O)Nc1ccc(Oc2ccc(CCNCc3ccco3)cc2)cc1` [Example 36, N-[4-(4-{2-[(Furan-2-ylmethyl)-amino]-ethyl}-phenoxy)-phenyl]-acetamide], the Ki in test [1] (setting [4]) was greater than 2500 nM; in test [2], greater than 4000 nM; in test [3] it was greater than 5000 nM.

The Ki is the dissociation constant of the complex between target and ligand, obtained from inhibition or displacement.
